How the values were obtained:
[1] = Survival of wild-type and IL-18KO mice after Cisplatin; assay type: in vivo, mouse; details: Cisplatin 20 mg/kg i.p.; for dead mice: day 2; for survival rate: day 3
Procedure: Open and closed symbols show wild-type and IL-18KO mice, respectively.
(§1) As a control, mice were treated with a similar volume of saline.

[2] = Serum IL-18 and other cytokines after Cisplatin treatment (ELISA); assay type: in vivo, mouse; details: wild-type BALB/c mice, Cisplatin 20 mg/kg i.p.
Procedure: Levels of serum IL-18 were measured using the specific ELISA kit.
IL-18 concentrations in serum were measured by ELISA purchased from Medical and Biological Laboratories (Tokyo, Japan) in accordance with the manufactures' instructions. Other cytokines such as TNF-α, IFN-γ, IL-1β, IL-10 and MIP-1α were measured respective ELISA kits purchased from R&D Systems Inc (USA).

[3] = Accumulation of Cisplatin in the kidney (platinum ion content of kidney homogenate); assay type: in vivo, mouse; details: wild-type vs IL-18KO mice, Cisplatin 20 mg/kg i.p.
Procedure: Accumulations of Cisplatin in the kidney were measured as platinum ion content in the kidney homogenate. Open and closed columns show wild-type and IL-18KO mice, respectively.

aldosterone receptor [4] = molecular target: T1, aldosterone receptor (Mus musculus, UniProt Q8VII8)
T1 sequence (Q8VII8 1-978): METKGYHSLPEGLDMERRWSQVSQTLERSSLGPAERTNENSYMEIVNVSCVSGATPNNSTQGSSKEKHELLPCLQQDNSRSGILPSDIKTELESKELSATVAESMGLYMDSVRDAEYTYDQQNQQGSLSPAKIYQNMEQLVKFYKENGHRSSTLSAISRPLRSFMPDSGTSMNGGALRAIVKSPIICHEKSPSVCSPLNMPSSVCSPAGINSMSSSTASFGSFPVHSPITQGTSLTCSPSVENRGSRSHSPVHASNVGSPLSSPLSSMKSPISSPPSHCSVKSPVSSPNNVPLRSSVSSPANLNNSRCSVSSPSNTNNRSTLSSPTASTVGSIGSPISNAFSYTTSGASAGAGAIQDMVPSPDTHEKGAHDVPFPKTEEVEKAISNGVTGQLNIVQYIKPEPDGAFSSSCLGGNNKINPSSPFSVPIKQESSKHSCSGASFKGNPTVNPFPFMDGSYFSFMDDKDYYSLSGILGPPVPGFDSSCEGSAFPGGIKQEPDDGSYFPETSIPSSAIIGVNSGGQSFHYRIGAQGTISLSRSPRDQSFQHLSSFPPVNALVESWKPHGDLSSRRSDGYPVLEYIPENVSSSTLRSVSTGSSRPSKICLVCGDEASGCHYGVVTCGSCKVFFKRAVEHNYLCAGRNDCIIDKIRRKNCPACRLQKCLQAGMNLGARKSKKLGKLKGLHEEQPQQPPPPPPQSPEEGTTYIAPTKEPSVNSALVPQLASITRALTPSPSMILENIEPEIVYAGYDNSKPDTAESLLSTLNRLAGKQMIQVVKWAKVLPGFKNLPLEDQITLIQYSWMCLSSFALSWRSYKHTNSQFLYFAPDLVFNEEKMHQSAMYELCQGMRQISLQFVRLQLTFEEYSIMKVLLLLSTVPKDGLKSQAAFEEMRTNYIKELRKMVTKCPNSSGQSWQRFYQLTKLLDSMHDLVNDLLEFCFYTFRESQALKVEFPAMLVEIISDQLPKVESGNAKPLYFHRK
Procedure: (§2) Open and closed columns show vehicle- and Eplerenone-treated mice, respectively. […] NS; not significant.
(§3) Blood urea nitrogen (BUN) and creatinine were enzymatically measured by HITACHI 7180 auto-analyzer. Aldosterone level was measured by radioimmuno assay. All of these assays were performed by SRL, Inc (Tokyo, Japan).

aldosterone receptor [5] = molecular target: T1, aldosterone receptor; assay: Effect of Eplerenone on Cisplatin-induced increase in plasma aldosterone in wild-type mice; assay type: in vivo; design: Wild-type male BALB/c mice (WT mice) aged 9-10 weeks-old were purchased; from tissue; host or cells: whole animal: wild-type male BALB/c mice dosed orally, with read-outs in plasma; details: Eplerenone 20 mg/kg orally, observation for 3 days, significant at day 1 and later
Procedure: as §2, §3

[6] = Exogenous recombinant mouse IL-18 in Cisplatin-treated IL-18KO mice: plasma BUN and creatinine; assay type: in vivo; details: IL-18KO mice supplemented with rmIL-18 (2 μg/body), Cisplatin 20 mg/kg i.p.
Procedure: Plasma levels of BUN and creatinine were measured as shown in Materials and Methods. Open, closed and grey-colored columns show wild-type, IL-18KO and IL-18-supplemented IL-18KO mice, respectively. […] NS; not significant.
as §1, §3

[7] = Induction of plasma aldosterone by recombinant IL-18 in wild-type mice; assay type: in vivo
Procedure: Wild-type mice were treated with various doses of IL-18 (0.2, 0.6 and 2 mg/mouse), then blood samples were collected at 5 hours after IL-18 treatment. […] NS; not significant.
as §3

[8] = wild-type mice, Eplerenone 20 mg/kg orally 30 min pre, day 1, day 2, Cisplatin 20 mg/kg i.p.

Molecule: N.N.[Cl][Pt][Cl] [Cisplatin]
- dead mice ([1]; IL-18KO mice): no mouse was dead
- survival rate ([1]; IL-18KO mice): 92.9%
- dead mice ([1]; wild-type mice): six of fourteen
- survival rate ([1]; wild-type mice): 28.6%
- levels of IL-18 in the circulation ([2]; around day 3): over 1000 pg/ml
- other cytokines (TNF-α, IFN-γ, IL-1β, IL-10, MIP-1α) in serum ([2]; when IL-18 was at maximal levels (data not shown)): undetectable
- quantity of platinum ion in the kidney ([3]; day 1): almost equivalent
- rate of excretion of platinum ion from the kidney ([3]; day 2 and 3): much rapid in IL-18KO mice than in wild-type mice

Molecule: COC(=O)[C@@H]1CC2=CC(=O)CC[C@]2(C)[C@@]23O[C@@H]2C[C@@]2(C)[C@@H](CC[C@@]24CCC(=O)O4)[C@H]13 [Eplerenone]
- inhibition of increased creatinine level vs vehicle (aldosterone receptor [4]; day 1 and later after Cisplatin treatment): significant inhibition
- inhibition of increased BUN level vs vehicle (aldosterone receptor [4]; day 2 and 3 after Cisplatin treatment): Significant inhibition
- renal toxicity of Cisplatin (summary statement) (aldosterone receptor [4]; wild-type mice): strongly suppressed
- lethality of Cisplatin (aldosterone receptor [4]; wild-type mice treated with Eplerenone (data not shown)): almost completely suppressed
- elevation of plasma BUN (aldosterone receptor [4]; [8]): almost completely suppressed
- elevation of plasma creatinine (aldosterone receptor [4]; [8]): almost completely suppressed
- increase in plasma aldosterone level induced by Cisplatin (aldosterone receptor [5]): completely inhibited

B1: rmIL-18: Recombinant mouse IL-18 donated by GlaxoSmithKline Pharmaceuticals (protein, UniProt P70380 36-192, looked up)
Interleukin-18: NFGRLHCTTAVIRNINDQVLFVDKRQPVFEDMTDIDQSASEPQTRLIIYMYKDSEVRGLAVTLSVKDSKMSTLSCKNKIISFEEMDPPENIDDIQSDLIFFQKRVPGHNKMEFESSLYEGHFLACQKEDDAFKLILKKKDENGDKSVMFTLTNLHQS
- plasma levels of creatinine induced by Cisplatin ([6]; day 1 to 3): significantly increased
- plasma levels of BUN ([6]; day 3): increased to almost equivalent levels with wild-type mice
- renal toxicity of exogenously given IL-18 alone ([7]; wild-type mice (data not shown)): did not cause any renal toxicity
- dose of IL-18 giving significant induction of plasma aldosterone ([7]; wild-type mice, 5 hours after IL-18 treatment): over 0.6 μg
- plasma levels of aldosterone ([7]; wild-type mice, various doses of IL-18, 5 hours after treatment): augmented the plasma levels of aldosterone in a dose-dependent manner
